Measured values taken from patent publication USRE47689E1, “Compounds for treating spinal muscular atrophy” (PTC Therapeutics, Inc., priority 2011, dated 2019).
Where two headings read alike, the source gives them in different places.

Experiments:
[1] = test system: SMN2 minigene (full length SMN2 minigene mRNA containing SMN2 exon 7); test: SMN2 minigene mRNA splicing RT-qPCR assay in cultured cells; assay type: cell-based, human; settings: for EC (1.5-fold): Homo sapiens, HEK293-H, read-out: EC1.5x for production of full length SMN2 mRNA
Description: The reverse transcription-quantitative PCR-based (RT-qPCR) assay is used to quantify the level of the full length SMN2 minigene mRNA containing SMN2 exon 7 in a HEK293H cell line stably transfected with said minigene and treated with a test compound.
Protocol. HEK293H cells stably transfected with the SMN2-A minigene construct described above (10,000 cells/well) are seeded in 200 μL of cell culture medium (DMEM plus 10% FBS, with 200 μg/mL hygromycin) in 96-well flat-bottom plates and the plate is immediately swirled to ensure proper dispersal of cells, forming an even monolayer of cells. Cells are allowed to attach for at least 4-6 hours. […] A solution of test compound (1 μL, 200× in DMSO) is added to each cell-containing well and the plate is incubated for 24 hours in a cell culture incubator (37° C., 5% CO2, 100% relative humidity). 2 replicates are prepared for each test compound concentration. The cells are then lysed in Cells-To-Ct lysis buffer and the lysate is stored at −80° C.
The combination of these three oligonucleotides detects only SMN1 or SMN2 minigenes (RT-qPCR) and will not detect endogenous SMN1 or SMN2 genes.
The SMN forward and reverse primers are used at final concentrations of 0.4 μM.
The SMN2-minigene GAPDH mix (15 μL total volume) is prepared by combining 7.5 μL of 2×RT-PCR buffer, 0.4 μL of 25×RT-PCR enzyme mix, 0.75 μL of 20×GAPDH primer-probe mix, 4.0075 μL of water, 2 μL of 10-fold diluted cell lysate, 0.06 μL of 100 μM SMN forward primer, 0.06 μL of 100 μM SMN reverse primer, and 0.225 μL of 100 μM SMN probe.
PCR is carried out at the following temperatures for the indicated time: Step 1: 48° C. (15 min); Step 2: 95° C. (10 min); Step 3: 95° C. (15 sec); Step 4: 60° C. (1 min); then repeat Steps 3 and 4 for a total of 40 cycles.
Each reaction mixture contains both SMN2-A minigene and GAPDH primers/probe sets (multiplex design), allowing simultaneous measurement of the levels of two transcripts.
Two SMN spliced products are generated from the SMN2 minigene. The first spliced product containing exon 7, corresponding to full length SMN2 mRNA, is called SMN2mini FL. The second one lacking exon 7 is called SMN2mini Δ7.
The amplification efficiency E is calculated from the slope of the amplification curve for SMN2mini FL and GAPDH individually. The abundances of SMN2mini FL and GAPDH are then calculated as […], where Ct is the threshold value for each amplicon. The abundance of SMN2mini FL is normalized to GAPDH abundance. The normalized SMN2mini FL abundance from test compound-treated samples is then divided by normalized SMN2mini FL abundance from vehicle-treated cells to determine the level of SMN2 FL mRNA relative to vehicle control.
An EC1.5x for production of full length SMN2 mRNA between >3 μM and ≤30 μM is indicated by one star (*), an EC1.5x between >1 μM and ≤3 μM is indicated by two stars (**), an EC1.5x between >0.3 μM and ≤1 μM is indicated by three stars (***), an EC1.5x between >0.1 μM and ≤0.3 μM is indicated by four stars (****) and an EC1.5x≤0.1 μM is indicated by five stars (*****).

Smn protein = Smn protein assay in cultured cells (SMN HTRF); assay type: cell-based, human; settings: for EC1.5x (concentration giving 1.5-fold Smn protein increase): read-out: EC1.5x for Smn protein expression
Description: The SMN HTRF (homogeneous time resolved fluorescence) assay is used to quantify the level of Smn protein in SMA patient fibroblast cells treated with test compounds.
Protocol. Cells are thawed and cultured in DMEM-10% FBS for 72 hours. Cells are trypsinized, counted and resuspended to a concentration of 25,000 cells/mL in DMEM-10% FBS. […] 1 μL of test compound solution is transferred to cell-containing wells and cells are incubated for 48 hours in a cell culture incubator (37° C., 5% CO2, 100% relative humidity). Triplicate samples are set up for each test compound concentration. After 48 hours, the supernatant is removed from the wells and 25 μL of the RIPA lysis buffer, containing protease inhibitors, is added to the wells and incubated with shaking at room temperature for 1 hour. 25 μL of the diluent is added and then 35 μL of the resulting lysate is transferred to a 384-well plate, where each well contains 5 μL of the antibody solution (1:100 dilution of anti-SMN d2 and anti-SMN kryptate in SMN reconstitution buffer). The plate is centrifuged for 1 minute to bring the solution to the bottom of the wells, then incubated overnight at room temperature. Fluorescence for each well of the plate at 665 nm and 620 nm is measured on an EnVision multilabel plate reader (Perkin-Elmer).
The normalized fluorescence signal is calculated for each sample, Blank and vehicle control well by dividing the signal at 665 nm by the signal at 620 nm. Normalizing the signal accounts for possible fluorescence quenching due to the matrix effect of the lysate. The ΔF value (a measurement of Smn protein abundance) for each sample well is calculated by subtracting the normalized average fluorescence for the Blank control wells from the normalized fluorescence for each sample well and then dividing this difference by the normalized average fluorescence for the Blank control wells. The resulting ΔF value for each sample well represents the Smn protein abundance from test compound-treated samples. The ΔF value for each sample well is divided by the ΔF value for the vehicle control wells to calculate the fold increase in Smn protein abundance relative to the vehicle control.
An EC1.5x for Smn protein expression between >3 μM and ≤10 μM is indicated by one star (*), an EC1.5x between >1 and ≤3 μM is indicated by two stars (**), an EC1.5x between >0.3 μM and ≤1 μM is indicated by three stars (***) and an EC1.5x≤0.3 μM is indicated by four stars (****).

[2] = HEK293H cells stably transfected with SMN2-A minigene, 24 hours, 7-point concentration curve, 1.5-fold relative to vehicle-treated cells
[3] = SMA Type 1 patient fibroblast cells (GM03813), 48 hours, 7-point concentration curve, SMN HTRF, concentration producing 1.5 times Smn protein vs DMSO vehicle control
[4] = SMA patient fibroblast cells, 48 hours, 7-point concentration data, fold increase relative to vehicle control (SMN HTRF)

| Molecule | EC (1.5-fold) ([1]; 24 h) | maximum fold (Fold) increase of Smn protein (Smn protein) | EC1.5x (concentration giving 1.5-fold Smn protein increase) (Smn protein) | EC (1.5-fold) [1, 2] | EC1.5x (concentration giving 1.5-fold Smn protein increase) (Smn protein; [3]) | maximum fold (Fold) increase of Smn protein (Smn protein; [4]) | EC1.5x for production of full length SMN2 mRNA [1, 2] |
| --- | --- | --- | --- | --- | --- | --- | --- |
| Cc1cn2cc(-c3cc4ccc(C5=CCN(C)CC5)cc4oc3=O)nc2c(C)n1 [Compound 800, 3-(6,8-dimethylimidazo[1,2-a]pyrazin-2-yl)-7-(1-methyl-1,2,3,6-tetrahydropyridin-4-yl)-2H-chromen-2-one] | < 0.1 µM | ***** (key: *: maximum fold increase of ≤1.2; **: fold increase between >1.2 and ≤1.35; ***: fold increase between >1.35 and ≤1.5; ****: fold increase between >1.5 and ≤1.65; *****: fold increase >1.65) | < 300 nM |  |  |  |  |
| CCN1CCN(c2ccc3cc(-c4cn5cc(C)nc(C)c5n4)c(=O)oc3c2)C[C@H]1C [Compound 679, 3-(6,8-dimethylimidazo[1,2-a]pyrazin-2-yl)-7-[(3R)-4-ethyl-3-methylpiperazin-1-yl]-2H-chromen-2-one] |  |  |  | < 0.1 µM | < 300 nM | ***** (fold increase >1.65) |  |
| CN(C)CCN(C)c1ccc2cc(-c3nc4ccccc4o3)c(=O)oc2c1 [Compound 49, 3-(1,3-benzoxazol-2-yl)-7-{[2-(dimethylamino)ethyl](methyl)amino}-2H-chromen-2-one] |  |  |  | 3 to 30 µM |  | * (maximum fold increase of ≤1.2) |  |
| Cc1nccn2cc(-c3cc4ccc(N5CCN[C@@H](C)C5)cc4oc3=O)nc12 [Compound 573, 3-(8-methylimidazo[1,2-a]pyrazin-2-yl)-7-[(3S)-3-methylpiperazin-1-yl]-2H-chromen-2-one] |  |  |  | 0.3 to 1 µM | < 300 nM | **** (fold increase between >1.5 and ≤1.65) |  |
| Cc1cn2cc(-c3cc4ccc(N5CCN6CCC[C@H]6C5)cc4oc3=O)nc2cn1 [Compound 609, 7-[(8aS)-hexahydropyrrolo[1,2-a]pyrazin-2(1H)-yl]-3-(6-methylimidazo[1,2-a]pyrazin-2-yl)-2H-chromen-2-one] |  |  |  | < 0.1 µM | < 300 nM | ***** (fold increase >1.65) |  |
| Cc1cn2cc(-c3cc4ccc(N5CCN6CCC[C@H]6C5)cc4oc3=O)cc(F)c2n1 [Compound 983, 3-(8-fluoro-2-methylimidazo[1,2-a]pyridin-6-yl)-7-[(8aS)-hexahydropyrrolo[1,2-a]pyrazin-2(1H)-yl]-2H-chromen-2-one] |  |  |  | < 0.1 µM | < 300 nM | ***** (fold increase >1.65) |  |
| Cc1cn2cc(-c3cc4ccc(N5CCN[C@@H](C)C5)cc4oc3=O)nc2cn1 [Compound 569, 3-(6-methylimidazo[1,2-a]pyrazin-2-yl)-7-[(3S)-3-methylpiperazin-1-yl]-2H-chromen-2-one] |  |  |  | < 0.1 µM | < 300 nM | ***** (fold increase >1.65) |  |
| Cc1cc2sc(-c3cc4ccc(N5CCNCC5)cc4oc3=O)cc2c(C)n1 [Compound 817, 3-(4,6-dimethylthieno[3,2-c]pyridin-2-yl)-7-(piperazin-1-yl)-2H-chromen-2-one] |  |  |  | < 0.1 µM |  | ** (fold increase between >1.2 and ≤1.35) |  |
| 7-(2,5-diazabicyclo[2.2.2]oct-2-yl)-3-(pyrazolo[1,5-a]pyridin-2-yl)-2H-chromen-2-one [Compound 191] |  |  |  |  |  | ** (fold increase between >1.2 and ≤1.35) | *** (between >0.3 μM and ≤1 μM) |
| CCN1CCN(c2ccc3cc(-c4cn5cc(C)nc(C)c5n4)c(=O)oc3c2)CC1C (stereo not shown) [Compound 852, 3-(6,8-dimethylimidazo[1,2-a]pyrazin-2-yl)-7-(4-ethyl-3-methylpiperazin-1-yl)-2H-chromen-2-one] |  |  |  | < 0.1 µM | < 300 nM | **** (fold increase between >1.5 and ≤1.65) |  |
| Cc1ccn2cc(-c3cc4ccc(N5CCN(C)CC5)cc4oc3=O)nc2n1 [Compound 224, 3-(7-methylimidazo[1,2-a]pyrimidin-2-yl)-7-(4-methylpiperazin-1-yl)-2H-chromen-2-one] |  |  |  | 0.3 to 1 µM |  | * (maximum fold increase of ≤1.2) |  |
| O=c1oc2cc(N3CC4CC3CN4)ccc2cc1-c1nc2ccccc2o1 (stereo not shown) [Compound 85, 3-(1,3-benzoxazol-2-yl)-7-(2,5-diazabicyclo[2.2.1]hept-2-yl)-2H-chromen-2-one] |  |  |  | 3 to 30 µM |  | * (maximum fold increase of ≤1.2) |  |
| Cc1cccc2oc(-c3cc4ccc(N5CCNCC5)cc4oc3=O)nc12.Cl [Compound 22, 3-(4-methyl-1,3-benzoxazol-2-yl)-7-(piperazin-1-yl)-2H-chromen-2-one hydrochloride] |  |  |  | 3 to 30 µM |  | * (maximum fold increase of ≤1.2) |  |
| O=c1oc2cc(N3CCNCC3)ccc2cc1-c1cn2ccccc2n1 [Compound 34, 3-(imidazo[1,2-a]pyridin-2-yl)-7-(piperazin-1-yl)-2H-chromen-2-one] |  |  |  | 0.3 to 1 µM |  | ** (fold increase between >1.2 and ≤1.35) |  |
| O=c1oc2cc(N3CCN4CCC[C@H]4C3)ccc2cc1-c1ccc2nccn2c1 [Compound 979, 7-[(8aS)-hexahydropyrrolo[1,2-a]pyrazin-2(1H)-yl]-3-(imidazo[1,2-a]pyridin-6-yl)-2H-chromen-2-one] |  |  |  | 1 to 3 µM |  | ** (fold increase between >1.2 and ≤1.35) |  |
| CN1CCCN(c2ccc3cc(-c4cn5ccncc5n4)c(=O)oc3c2)CC1 [Compound 455, 3-(imidazo[1,2-a]pyrazin-2-yl)-7-(4-methyl-1,4-diazepan-1-yl)-2H-chromen-2-one] |  |  |  | < 0.1 µM | 300 to 1000 nM | **** (fold increase between >1.5 and ≤1.65) |  |
